Test results from PubChem BioAssay AID256 (DTP/NCI, 2004).
Where “and” joins values, the source holds several entries; their conditions need not be identical. Equal values may be shown once. Toxic doses and inconclusive results are not listed.

Test system: CD2F1 mice, L1210 leukemia ip, survival T/C
Test: NCI In Vivo Anticancer Drug Screen. Data for tumor model L1210 Leukemia (intraperitoneal) in CD2F1 (CDF1) mice
Conditions: endpoint: mean survival time, higher = longer survival
Summary of the method: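 Tumor-bearing mice (transplanted tumor) were split into treated and vehicle control groups, and the measured endpoint of each treated group was divided by that of its vehicle controls.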

[1] = dose: 100.0 mg/kg/injection, schedule: Q01DX001 (ip), vehicle: saline with Tween-80
[2] = dose: 200.0 mg/kg/injection, schedule: Q01DX001 (ip), vehicle: saline with Tween-80
[3] = dose: 400.0 mg/kg/injection, schedule: Q01DX001 (ip), vehicle: saline with Tween-80
[4] = dose: 100.0 mg/kg/injection, schedule: Q01DX009 (ip), vehicle: saline with Tween-80
[5] = dose: 100.0 mg/kg/injection, schedule: Q04DX003 (ip), vehicle: saline with Tween-80
[6] = dose: 200.0 mg/kg/injection, schedule: Q01DX009 (ip), vehicle: saline with Tween-80
[7] = dose: 200.0 mg/kg/injection, schedule: Q04DX003 (ip), vehicle: saline with Tween-80
[8] = dose: 400.0 mg/kg/injection, schedule: Q01DX009 (ip), vehicle: saline with Tween-80
[9] = dose: 400.0 mg/kg/injection, schedule: Q04DX003 (ip), vehicle: saline with Tween-80

In the case of `COc1cc([C@@H]2c3cc4c(cc3[C@@H](OC3OC5CO[C@@H](c6cccs6)OC5C(O)C3O)[C@H]3COC(=O)[C@H]23)OCO4)cc(OC)c1O` (stereo not given in full), the T/C (dose: 0.25 mg/kg/injection, schedule: Q01DX009 (ip), vehicle: saline) is reported as 115 % of control, the T/C (dose: 0.25 mg/kg/injection, schedule: Q03HX016 (ip), vehicle: saline) is reported as 152 % of control and the T/C (dose: 0.25 mg/kg/injection, schedule: Q03HX024 (ip), vehicle: saline) is reported as 169 % of control and 173 % of control. For the same molecule, the T/C (dose: 0.5 mg/kg/injection, schedule: Q01DX009 (sc), vehicle: saline) was 110 % of control, the T/C (dose: 0.5 mg/kg/injection, schedule: Q03HX008 (ip), vehicle: saline) was 164 % of control and the T/C (dose: 0.5 mg/kg/injection, schedule: Q03HX016 (ip), vehicle: saline) was 246 % of control. The T/C (dose: 0.5 mg/kg/injection, schedule: Q03HX024 (ip), vehicle: saline) was 256 % of control and 323 % of control, the T/C (dose: 1.0 mg/kg/injection, schedule: Q01DX005 (ip), vehicle: saline) was 153 % of control and the T/C (dose: 1.0 mg/kg/injection, schedule: Q01DX009 (ip), vehicle: saline) was 123 % of control and 231 % of control and 106 % of control. The T/C (dose: 1.0 mg/kg/injection, schedule: Q03HX008 (ip), vehicle: saline) was 192 % of control, the T/C (dose: 1.0 mg/kg/injection, schedule: Q03HX016 (ip), vehicle: saline) was 544 % of control and the T/C (dose: 1.0 mg/kg/injection, schedule: Q03HX024 (ip), vehicle: saline) was 441 % of control and 514 % of control. For the same molecule, the T/C (dose: 2.0 mg/kg/injection, schedule: Q01DX001 (sc), vehicle: saline) was 113 % of control, the T/C (dose: 2.0 mg/kg/injection, schedule: Q01DX005 (ip), vehicle: saline) was 204 % of control and the T/C (dose: 2.0 mg/kg/injection, schedule: Q01DX009 (ip), vehicle: saline) was 202 % of control and 109 % of control. For the same molecule, the T/C (dose: 2.0 mg/kg/injection, schedule: Q01DX009 (oral), vehicle: saline) was 114 % of control, the T/C (dose: 2.0 mg/kg/injection, schedule: Q01DX009 (sc), vehicle: saline) was 166 % of control and the T/C (dose: 2.0 mg/kg/injection, schedule: Q03HX008 (ip), vehicle: saline) was 173 % of control. For the same molecule, the T/C (dose: 2.0 mg/kg/injection, schedule: Q03HX016 (ip), vehicle: saline) was 313 % of control, the T/C (dose: 2.0 mg/kg/injection, schedule: Q03HX024 (ip), vehicle: saline) was 89 % of control and the T/C (dose: 4.0 mg/kg/injection, schedule: Q01DX001 (ip), vehicle: saline) was 158 % of control. The T/C (dose: 4.0 mg/kg/injection, schedule: Q01DX001 (sc), vehicle: saline) was 123 % of control, the T/C (dose: 4.0 mg/kg/injection, schedule: Q01DX005 (ip), vehicle: saline) was 87 % of control and the T/C (dose: 4.0 mg/kg/injection, schedule: Q01DX009 (ip), vehicle: saline) was 210 % of control and 112 % of control. For the same molecule, the T/C (dose: 4.0 mg/kg/injection, schedule: Q01DX009 (sc), vehicle: saline) was 102 % of control, the T/C (dose: 4.0 mg/kg/injection, schedule: Q04DX003 (ip), vehicle: saline) was 209 % of control and the T/C (dose: 4.0 mg/kg/injection, schedule: Q08DX002 (ip), vehicle: saline) was 164 % of control. The T/C (dose: 8.0 mg/kg/injection, schedule: Q01DX001 (ip), vehicle: saline) was 239 % of control, the T/C (dose: 8.0 mg/kg/injection, schedule: Q01DX001 (oral), vehicle: saline) was 122 % of control and the T/C (dose: 8.0 mg/kg/injection, schedule: Q01DX009 (oral), vehicle: saline) was 102 % of control. The T/C (dose: 8.0 mg/kg/injection, schedule: Q04DX003 (ip), vehicle: saline) was 169 % of control and 251 % of control, the T/C (dose: 8.0 mg/kg/injection, schedule: Q08DX002 (ip), vehicle: saline) was 346 % of control and the T/C (dose: 16.0 mg/kg/injection, schedule: Q01DX001 (ip), vehicle: saline) was 254 % of control. For the same molecule, the T/C (dose: 16.0 mg/kg/injection, schedule: Q01DX001 (sc), vehicle: saline) was 153 % of control, the T/C (dose: 32.0 mg/kg/injection, schedule: Q01DX001 (ip), vehicle: saline) was 87 % of control and the T/C (dose: 32.0 mg/kg/injection, schedule: Q01DX001 (sc), vehicle: saline) was 156 % of control. The T/C (dose: 32.0 mg/kg/injection, schedule: Q04DX003 (ip), vehicle: saline) was 454 % of control and the T/C (dose: 32.0 mg/kg/injection, schedule: Q08DX002 (ip), vehicle: saline) was 114 % of control.

For `c1ccc(CN2CCC(Nc3ccccc3)(c3nnnn3C3CCCCC3)CC2)cc1`, the T/C [1] was 95 % of control, the T/C [2] was 96 % of control and the T/C [3] was 90 % of control.

`CC(C)(C)c1cc(Cc2cc(C(C)(C)C)c(O)c(C(C)(C)C)c2)cc(C(C)(C)C)c1O` was tested, and the T/C [1] was 91 % of control, the T/C [2] was 91 % of control and the T/C [3] was 103 % of control.

With `CC(CC(O)(c1ccccc1)c1ccccc1)C(F)(F)F` (stereo not given) the T/C [4] was 100 % of control, the T/C [5] was 94 % of control and the T/C [6] was 95 % of control. The T/C [7] was 96 % of control, the T/C [8] was 98 % of control and the T/C [9] was 97 % of control.

With `[Cl][Pt+2][Cl].[NH-]C1CCCC2CCC[N-]C12` (stereo not given) the T/C (dose: 100.0 mg/kg/injection, schedule: Q04DX002 (ip), vehicle: saline with Tween-80) was 105 % of control, the T/C (dose: 200.0 mg/kg/injection, schedule: Q04DX002 (ip), vehicle: saline with Tween-80) was 121 % of control and the T/C (dose: 400.0 mg/kg/injection, schedule: Q04DX002 (ip), vehicle: saline with Tween-80) was 110 % of control.

`CC1(C)CC(C)(OC(=O)c2ccccc2)N=N1` (stereo not given) was tested, and the T/C (dose: 25.0 mg/kg/injection, schedule: Q01DX009 (ip), vehicle: Klucel (hydroxypropylcellulose) (HPC)) was 97 % of control, the T/C (dose: 50.0 mg/kg/injection, schedule: Q01DX009 (ip), vehicle: Klucel (hydroxypropylcellulose) (HPC)) was 94 % of control and the T/C (dose: 100.0 mg/kg/injection, schedule: Q01DX009 (ip), vehicle: Klucel (hydroxypropylcellulose) (HPC)) was 101 % of control. The T/C (dose: 200.0 mg/kg/injection, schedule: Q01DX009 (ip), vehicle: Klucel (hydroxypropylcellulose) (HPC)) was 100 % of control and the T/C (dose: 400.0 mg/kg/injection, schedule: Q01DX009 (ip), vehicle: Klucel (hydroxypropylcellulose) (HPC)) was 101 % of control.

`CC(O)(P(=O)(O)O)P(=O)(O)O.[NH-]CC[NH-].[NH-]CC[NH-].[Pt+2].[Pt+2]` was tested, and the T/C (dose: 3.13 mg/kg/injection, schedule: Q04DX003 (ip), vehicle: distilled water + Tween-80) was 104 % of control, the T/C (dose: 6.25 mg/kg/injection, schedule: Q04DX003 (ip), vehicle: distilled water + Tween-80) was 104 % of control and the T/C (dose: 12.5 mg/kg/injection, schedule: Q04DX003 (ip), vehicle: distilled water + Tween-80) was 88 % of control. The T/C (dose: 25.0 mg/kg/injection, schedule: Q04DX003 (ip), vehicle: distilled water + Tween-80) was 103 % of control, the T/C (dose: 50.0 mg/kg/injection, schedule: Q04DX003 (ip), vehicle: distilled water + Tween-80) was 119 % of control and the T/C (dose: 100.0 mg/kg/injection, schedule: Q04DX003 (ip), vehicle: distilled water + Tween-80) was 124 % of control. For the same molecule, the T/C (dose: 200.0 mg/kg/injection, schedule: Q04DX003 (ip), vehicle: distilled water + Tween-80) was 111 % of control.

With `CCCCCC/C(C)=C(/C#N)C(=O)OC` the T/C (dose: 75.0 mg/kg/injection, schedule: Q01DX001 (ip), vehicle: saline) was 94 % of control, the T/C (dose: 150.0 mg/kg/injection, schedule: Q01DX001 (ip), vehicle: saline) was 97 % of control and the T/C (dose: 300.0 mg/kg/injection, schedule: Q01DX001 (ip), vehicle: saline) was 96 % of control.

With `CN(c1ccccc1)c1ccc(N=Nc2nc3ccccc3s2)cc1` the T/C [1] was 95 % of control, the T/C [2] was 98 % of control and the T/C [3] was 87 % of control.

For `BrC1C(Br)C2C3C=CC(c4ccccc43)C12` (stereo not given), the T/C [4] was 91 % of control, the T/C [5] was 98 % of control and the T/C [6] was 94 % of control. The T/C [7] was 98 % of control, the T/C [8] was 89 % of control and the T/C [9] was 96 % of control.

`NCCN1CCCC1` was tested, and the T/C (dose: 100.0 mg/kg/injection, schedule: Q04DX002 (ip), vehicle: saline) was 96 % of control, the T/C (dose: 200.0 mg/kg/injection, schedule: Q04DX002 (ip), vehicle: saline) was 111 % of control and the T/C (dose: 400.0 mg/kg/injection, schedule: Q04DX002 (ip), vehicle: saline) was 103 % of control.

With `NC(=O)N/N=C/COC(=O)c1ccccc1` the T/C [1] was 93 % of control, the T/C [2] was 91 % of control and the T/C [3] was 98 % of control.

`O=c1[nH]c(=O)n(C2CC(O)C(CO)O2)cc1S` (stereo not given) was tested, and the T/C (dose: 12.5 mg/kg/injection, schedule: Q01DX005 (ip), vehicle: water) was 107 % of control, the T/C (dose: 25.0 mg/kg/injection, schedule: Q01DX005 (ip), vehicle: water) was 117 % of control and the T/C (dose: 50.0 mg/kg/injection, schedule: Q01DX005 (ip), vehicle: water) was 112 % of control. The T/C (dose: 100.0 mg/kg/injection, schedule: Q01DX005 (ip), vehicle: water) was 122 % of control, the T/C (dose: 133.0 mg/kg/injection, schedule: Q01DX005 (ip), vehicle: water) was 121 % of control and the T/C (dose: 200.0 mg/kg/injection, schedule: Q01DX005 (ip), vehicle: water) was 111 % of control. The T/C (dose: 300.0 mg/kg/injection, schedule: Q01DX005 (ip), vehicle: water) was 115 % of control.
